In US5344941A, “Water soluble salts of thionaphthene-2-carboxylic acid” (priority 1992, dated 1994):
Where a name gives a salt, the structure may show the parent alone.

What was measured:
[1] = test system: rats made hypercalcemic by the injection of Leydig-cell carcinoma-tumor material; assay: Reduction of blood calcium levels of rats made hypercalcemic by injection of Leydig-cell carcinoma-tumor material; type: in vivo
Method: The following tables (Experiments I and II) illustrate the effectiveness of the present invention in reducing the blood calcium levels of rats made hypercalcemic by the injection of Leydig-cell carcinoma-tumor material. For details of the methodology employed in these studies, see: Johannesson et al., Endocrinology 117/4: 1508-1511 (1985). Normal calcium blood levels are in the range of 9-10 mg/dL.
In the table, n=number of rats evaluated at each dosage and in controls while S.D.=standard deviation. These higher initial values reflect Leydig cell-induced hypercalcemia. Data for final calcium levels show the decreases in calcium levels produced following administration of the lysine salt of TNCA.

[2] = in vivo
[3] = Solubility in water and organic solvents
[4] = pH of a 5% aqueous solution of the salt; type: physicochemical
[5] = in vivo; remark: listed apart in the source
From the text: The utility of the salts, in a clinical treating sense, is equivalent to TNCA itself but they are far more useful, practically, for the reasons of amelioration of side effects and the high blood levels available via the oral route.

[6] = Acute toxicity (LD50) by oral route and by injection; conditions: mouse, in vivo
mice [7] = assay: as above; conditions: oral vs intraperitoneal
pK = type: physicochemical
mice [8] = conditions: cited from earlier work

Which “Initial calcium levels (mean)” value ([1]; Experiment 1, 195 mg/kg group, N=8, initial (before treatment)) does the source give for O=C(O)c1cc2ccccc2s1 [Example 1, Benzo(b)thiophene-2-carboxylic acid L-Lysine salt] here?
Its value is 12.28 mg/dL.

And the “Final calcium levels (mean)” value ([1]; Experiment 1, 195 mg/kg, N=8, control 17.38)?
The value was 14.85 mg/dL.

And the “Initial calcium levels (mean)” value ([1]; Experiment 1, 292 mg/kg group, N=9, initial (before treatment))?
Its value is 13.31 mg/dL.

What about the “Final calcium levels (mean)” value ([1]; Experiment 1, 292 mg/kg, N=9, control 17.38) of the same molecule?
The value was 11.54 mg/dL.

And the “Initial calcium (mean)” value ([1]; Experiment 2, 195 mg/kg group, N=6, initial (before treatment))?
The value was 14.07 mg/dL.

What about the “Final calcium levels (mean)” value ([1]; Experiment 2, 195 mg/kg, N=6, control 18.03) of the same molecule?
Its value is 13.27 mg/dL.

What about the “Initial calcium (mean)” value ([1]; Experiment 2, 292 mg/kg group, N=6, initial (before treatment)) of the same molecule?
Its value is 14.68 mg/dL.

And the “Final calcium levels (mean)” value ([1]; Experiment 2, 292 mg/kg, N=6, control 18.03)?
The value was 11.00 mg/dL.

And the “Initial calcium (mean)” value ([1]; Experiment 2, 389 mg/kg group, N=10, initial (before treatment))?
The value was 13.80 mg/dL.

What about the “Final calcium levels (mean)” value ([1]; Experiment 2, 389 mg/kg, N=8, control 18.03) of the same molecule?
The value was 10.16 mg/dL.

What about the “Decrease in calcium levels, dose relation” value ([1]; Experiments 1 and 2) of the same molecule?
The value was “clearly does-related in both experiments”.

What about the “Type of calcium-lowering activity” value ([1]; Experiments 1 and 2) of the same molecule?
Its value is “anti-hypercalcemic, rather than hypocalcemic”.

And the “Serum calcium levels following treatment” value ([1]; relative to pretreatment / normal levels)?
The value was “returned to pretreatment levels, but not to below normal values”.

What about the Gastric irritation [2] of the same molecule?
The Gastric irritation was “prevents the adverse effects associated with gastric irritation”.

And the “Solubility in ethanol (ethyl alcohol)” value [3]?
Its value is “insoluble”.

And the “Solubility in methanol (methyl alcohol)” value [3]?
The value was “insoluble”.

What about the Solubility in toluene ([3]; toluene) of the same molecule?
Its Solubility in toluene is “insoluble”.

And the solubility ([3]; water)?
The solubility was 700 mg/mL.

And the “pH of a 5% aqueous solution” value [4]?
Its value is 5.75.

What about the “Absorption from the gastrointestinal tract / following oral administration” value [5] of the same molecule?
The value was “readily absorbed following oral administration”.

And the LD50 [6]?
The LD50 was ~1300 mg/kg.

What about the LD50 ([6]; po) of the same molecule?
Its LD50 is ~1500 mg/kg.

And the “LD50 given orally compared to that obtained when administered intraperitoneally” value (mice [7])?
The value was “almost equivalent”.

With O=C(O)c1cc2ccccc2s1 [Example 2] as the molecule, how does the “Water solubility (in words)” value ([3]; water) read?
Its value is “water-soluble”.

And the “pH of a 5% aqueous solution” value [4]?
Its value is 6.77.

Which results are given for O=C(O)c1cc2ccccc2s1 [Example 3, Ammonium salt of TNCA]?
Water solubility (in words) ([3]; water): water-soluble; pH of a 5% aqueous solution [4]: 6.05

Which results are given for O=C(O)c1cc2ccccc2s1 [Example 4, Arginine salt of TNCA]?
Solubility in ethanol (ethyl alcohol) [3]: soluble; Solubility in methanol (methyl alcohol) [3]: soluble; Water solubility (in words) ([3]; water): water-soluble; pH of a 5% aqueous solution [4]: 5.8

For O=C(O)c1cc2ccccc2s1 [Example 5, Piperidine salt of TNCA], which “Water solubility (in words)” value ([3]; water) is on record?
The value was “moderately water-soluble”.

And the “pH of a 5% aqueous solution” value [4]?
The value was 6.4.

With O=C(O)c1cc2ccccc2s1 [Example 6, Sodium salt of TNCA] as the molecule, how does the “Water solubility (in words)” value ([3]; water) read?
Its value is “water-insoluble”.

What about the “Water solubility (in words)” value ([3]; water, listed as sodium) of the same molecule?
Its value is “mainly insoluble in water”.

For O=C(O)c1cc2ccccc2s1 [Example 7], which “Water solubility (in words)” value ([3]; water) is on record?
Its value is “water-insoluble”.

For C[C@H](N)C(=O)O [L-alanine], which “Water solubility (in words)” value ([3]; water) is on record?
Its value is “No water-soluble reaction product is formed”.

What does the source list for O=C(O)c1cc2ccccc2s1 [TNCA, benzo(b)thiophene-2-carboxylic acid, reference compound]?
pKa (pK): 3.4; LD50 by injection (mice [8]; by injection, value repeated in text): 1450 mg/kg; LD50 (mice [8]; mice, oral, TNCA in gum tragacanth): 3600 mg/kg; Gastric irritation [2]: causes gastric irritation, resulting in vomiting and bleeding; Solubility in methanol (methyl alcohol) [3]: soluble in methanol; Absorption from the gastrointestinal tract / following oral administration [5]: poorly absorbed from the gastrointestinal tracts

For O=C(O)c1cc2ccccc2s1 [potassium, potassium salt of TNCA], which “Water solubility (in words)” value ([3]; water) is on record?
Its value is “mainly insoluble in water”.
